According to patent publication US12662489B2 (Sitryx Therapeutics Limited, priority 2023, dated 2026):

How the values were obtained:
[1] = target: T1, MTHFD1 recombinant human enzyme (Homo sapiens, UniProt P11586); assay: MTHFD1 inhibition assay (NAD(P)H-Glo luminescence); conditions: MTHFD1 IC50, recombinant human enzyme 200 nM, NADP, band
T1 sequence (P11586 2-291 limits assumed): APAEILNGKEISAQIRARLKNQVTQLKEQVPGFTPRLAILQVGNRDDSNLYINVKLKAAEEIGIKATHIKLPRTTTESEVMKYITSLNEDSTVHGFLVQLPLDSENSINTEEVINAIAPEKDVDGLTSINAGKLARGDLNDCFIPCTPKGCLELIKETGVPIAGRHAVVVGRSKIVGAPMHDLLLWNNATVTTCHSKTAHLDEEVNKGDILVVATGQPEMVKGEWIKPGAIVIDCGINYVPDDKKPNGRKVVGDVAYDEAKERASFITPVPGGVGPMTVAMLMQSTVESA

[2] = target: T2, MTHFD2 recombinant human enzyme (Homo sapiens, UniProt P13995); assay: MTHFD2 inhibition assay (NAD(P)H-Glo luminescence); conditions: for MTHFD1/MTHFD2 IC50 ratio: selectivity of MTHFD2 inhibition over MTHFD1, band
T2 sequence (P13995 36-350): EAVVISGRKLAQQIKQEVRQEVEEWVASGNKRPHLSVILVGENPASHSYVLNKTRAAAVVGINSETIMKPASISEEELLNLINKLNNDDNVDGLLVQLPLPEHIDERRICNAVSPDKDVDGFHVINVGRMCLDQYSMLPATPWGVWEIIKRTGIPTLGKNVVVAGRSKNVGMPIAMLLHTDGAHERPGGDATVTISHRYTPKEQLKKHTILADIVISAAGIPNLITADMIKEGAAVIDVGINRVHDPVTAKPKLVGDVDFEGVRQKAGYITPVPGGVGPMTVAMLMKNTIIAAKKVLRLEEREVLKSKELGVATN

SMILES | IC50 [1] [nM] | IC50 [2] [nM] | MTHFD1/MTHFD2 IC50 ratio [2]
CCOc1cc(C(=O)N2CCc3c(c(=O)oc4c(C)c(N5CCN(C)[C@@H](COC)C5)cc(C)c34)C2)ccc1C(=O)NS(=O)(=O)N1C2CCC1CC2 [Example 227, (R)-N-((7-azabicyclo[2.2.1]heptan-7-yl)sulfonyl)-2-ethoxy-4-(8-(3-(methoxymethyl)-4-methylpiperazin-1-yl)-7,10-dimethyl-5-oxo-1,3,4,5-tetrahydro-2H-chromeno[3,4-c]pyridine-3-carbonyl)benzamide] | 100 to 1000 | 1 to 10 | H (>9.0 to 30)
COC[C@@H]1CN(c2cc(C)c3c4c(c(=O)oc3c2C)CN(C(=O)c2ccc(C(=O)NS(=O)(=O)N3CCCC3)c(OC3CCC3)c2)CC4)CCN1C [Example 131, (S)-2-cyclobutoxy-4-(8-(3-(methoxymethyl)-4-methylpiperazin-1-yl)-7,10-dimethyl-5-oxo-1,3,4,5-tetrahydro-2H-chromeno[3,4-c]pyridine-3-carbonyl)-N-(pyrrolidin-1-ylsulfonyl)benzamide] | 100 to 1000 | 10 to 100 | G (^ 3 to 9.0)
CCOc1c(C(=O)NS(=O)(=O)N2C3CCCC2CC3)ccc(C(=O)N2CCc3c(c(=O)oc4c(C)c(N5CCN(C)[C@@H](COC)C5)ccc34)C2)c1F [Example 236] | 10 to 100 | 10 to 100 | F (<3)
COC[C@H]1CN(c2cc(Cl)c3c4c(c(=O)oc3c2C)CN(C(=O)c2ccc(C(=O)NS(=O)(=O)N3CCC[C@@H]3COC)c(OC)c2)CC4)CCN1C [Example 288, 4-(10-chloro-8-((R)-3-(methoxymethyl)-4-methylpiperazin-1-yl)-7-methyl-5-oxo-1,3,4,5-tetrahydro-2H-chromeno[3,4-c]pyridine-3-carbonyl)-2-methoxy-N-(((R)-2-(methoxymethyl)pyrrolidin-1-yl)sulfonyl)benzamide] | 1000 to 5000 | 10 to 100 | J (>30)
COC[C@H]1CN(c2cc(Cl)c3c4c(c(=O)oc3c2C)CN(C(=O)c2cc(OC)c(C(=O)NS(=O)(=O)N(C3CC3)C3CC3)cc2F)CC4)CCN1C [Example 297, (R)-4-(10-chloro-8-(3-(methoxymethyl)-4-methylpiperazin-1-yl)-7-methyl-5-oxo-1,3,4,5-tetrahydro-2H-chromeno[3,4-c]pyridine-3-carbonyl)-N-(N,N-dicyclopropylsulfamoyl)-5-fluoro-2-methoxybenzamide] | 100 to 1000 | 10 to 100 | H (>9.0 to 30)
COC[C@H]1CN(c2ccc3c4c(c(=O)oc3c2C)CN(C(=O)c2cc(Cl)c(C(=O)NS(=O)(=O)C3(C)CC3)c(N3C5CCC3CC5)c2)CC4)CCN1C [Example 40, (R)-2-(7-azabicyclo[2.2.1]heptan-7-yl)-6-chloro-4-(8-(3-(methoxymethyl)-4-methylpiperazin-1-yl)-7-methyl-5-oxo-1,3,4,5-tetrahydro-2H-chromeno[3,4-c]pyridine-3-carbonyl)-N-((1-methylcyclopropyl)sulfonyl)benzamide] | 10 to 100 | 1 to 10 | H (>9.0 to 30)
CCOc1cc(C(=O)N2CCc3c(c(=O)oc4c(C)c(N5CCN(C)[C@@H](COC)C5)cc(Cl)c34)C2)c(F)cc1C(=O)NS(=O)(=O)N1C2CCC1CC2 [Example 317, (R)-N-((7-azabicyclo[2.2.1]heptan-7-yl)sulfonyl)-4-(10-chloro-8-(3-(methoxymethyl)-4-methylpiperazin-1-yl)-7-methyl-5-oxo-1,3,4,5-tetrahydro-2H-chromeno[3,4-c]pyridine-3-carbonyl)-2-ethoxy-5-fluorobenzamide] | 100 to 1000 | 10 to 100 | J (>30)
COC[C@H]1CN(c2ccc3c4c(c(=O)oc3c2C)CN(C(=O)c2cc(N(C)C)c(C(=O)NS(=O)(=O)N3CCC5(CC3)CC5)cc2Cl)CC4)CCN1C [Example 190, (R)-N-((6-azaspiro[2.5]octan-6-yl)sulfonyl)-5-chloro-2-(dimethylamino)-4-(8-(3-(methoxymethyl)-4-methylpiperazin-1-yl)-7-methyl-5-oxo-1,3,4,5-tetrahydro-2H-chromeno[3,4-c]pyridine-3-carbonyl)benzamide] | > 5000 | 100 to 1000 | H (>9.0 to 30)
COC[C@H]1CN(c2ccc3c4c(c(=O)oc3c2C)CN(C(=O)c2ccc(C(=O)NS(=O)(=O)N(C)C)c(N3C5CCC3CC5)c2)CC4)CCN1C [Example 16, (R)-2-(7-azabicyclo[2.2.1]heptan-7-yl)-N-(N,N-dimethylsulfamoyl)-4-(8-(3-(methoxymethyl)-4-methylpiperazin-1-yl)-7-methyl-5-oxo-1,3,4,5-tetrahydro-2H-chromeno[3,4-c]pyridine-3-carbonyl)benzamide] | 1 to 10 | 1 to 10 | F (<3)
COC[C@H]1CN(c2cc(C)c3c4c(c(=O)oc3c2C)CN(C(=O)c2ccc(C(=O)NS(=O)(=O)N(C)C)c(OC3CCC3)c2C)CC4)CCN1C [Example 179] | 100 to 1000 | 10 to 100 | G (^ 3 to 9.0)

Second part, the compound after the results:

IC50 [1] [nM] | IC50 [2] [nM] | MTHFD1/MTHFD2 IC50 ratio [2] | SMILES
10 to 100 | 10 to 100 | F (<3) | CCOc1c(C(=O)NS(=O)(=O)N(C2CC2)C2CC2)ccc(C(=O)N2CCc3c(c(=O)oc4c(C)c(N5CCN(C)[C@@H](COC)C5)cc(C)c34)C2)c1F [Example 231]
100 to 1000 | 10 to 100 | J (>30) | COC[C@H]1CN(c2cc(Cl)c3c4c(c(=O)oc3c2C)CN(C(=O)c2cc(N(C)C)c(C(=O)NS(=O)(=O)N3CCC[C@@H]3COC)cc2F)CC4)CCN1C [Example 290, 4-(10-chloro-8-((R)-3-(methoxymethyl)-4-methylpiperazin-1-yl)-7-methyl-5-oxo-1,3,4,5-tetrahydro-2H-chromeno[3,4-c]pyridine-3-carbonyl)-2-(dimethylamino)-5-fluoro-N-(((R)-2-(methoxymethyl)pyrrolidin-1-yl)sulfonyl)benzamide]
100 to 1000 | 10 to 100 | H (>9.0 to 30) | COC[C@H]1CN(c2cc(C)c3c4c(c(=O)oc3c2C)CN(C(=O)c2ccc(C(=O)NS(=O)(=O)N3CCCC3)c(N(C)C)c2F)CC4)CCN1C [Example 138, (R)-2-(dimethylamino)-3-fluoro-4-(8-(3-(methoxymethyl)-4-methylpiperazin-1-yl)-7,10-dimethyl-5-oxo-1,3,4,5-tetrahydro-2H-chromeno[3,4-c]pyridine-3-carbonyl)-N-(pyrrolidin-1-ylsulfonyl)benzamide]
1 to 10 | 1 to 10 | F (<3) | COC[C@H]1CN(c2cc(C)c3c4c(c(=O)oc3c2C)CN(C(=O)c2ccc(C(=O)NS(=O)(=O)N(C)C)c(N3CCC(C)(C)C3)c2)CC4)CCN1C [Example 88, (R)-2-(3,3-dimethylpyrrolidin-1-yl)-N-(N,N-dimethylsulfamoyl)-4-(8-(3-(methoxymethyl)-4-methylpiperazin-1-yl)-7,10-dimethyl-5-oxo-1,3,4,5-tetrahydro-2H-chromeno[3,4-c]pyridine-3-carbonyl)benzamide]
1000 to 5000 | 100 to 1000 | H (>9.0 to 30) | COC[C@H]1CN(c2cc(C)c3c4c(c(=O)oc3c2C)CN(C(=O)c2cc(OC)c(C(=O)NS(=O)(=O)N3CCCC3)c(C(F)(F)F)c2)CC4)CCN1C [Example 154, (R)-2-methoxy-4-(8-(3-(methoxymethyl)-4-methylpiperazin-1-yl)-7,10-dimethyl-5-oxo-1,3,4,5-tetrahydro-2H-chromeno[3,4-c]pyridine-3-carbonyl)-N-(pyrrolidin-1-ylsulfonyl)-6-(trifluoromethyl)benzamide]
1 to 10 | 1 to 10 | F (<3) | COC[C@H]1CN(c2cc(C)c3c4c(c(=O)oc3c2C)CN(C(=O)c2ccc(C(=O)NS(=O)(=O)N(C)C)c(N3CCC3)c2)CC4)CCN1C [Example 89, (R)-2-(azetidin-1-yl)-N-(N,N-dimethylsulfamoyl)-4-(8-(3-(methoxymethyl)-4-methylpiperazin-1-yl)-7,10-dimethyl-5-oxo-1,3,4,5-tetrahydro-2H-chromeno[3,4-c]pyridine-3-carbonyl)benzamide]
10 to 100 | 1 to 10 | G (^ 3 to 9.0) | COC[C@H]1CN(c2cc(C)c3c4c(c(=O)oc3c2C)CN(C(=O)c2ccc(C(=O)NS(=O)(=O)N(C)C)c(N(C)C3CCC3)c2)CC4)CCN1C [Example 55, (R)-2-(cyclobutyl(methyl)amino)-N-(N,N-dimethylsulfamoyl)-4-(8-(3-(methoxymethyl)-4-methylpiperazin-1-yl)-7,10-dimethyl-5-oxo-1,3,4,5-tetrahydro-2H-chromeno[3,4-c]pyridine-3-carbonyl)benzamide]
